Assay results reported in paper PMC8541633, “A Novel Statin Compound from Monacolin J Produced Using CYP102A1-Catalyzed Regioselective C-Hydroxylation” (Pharmaceuticals, 2021).
pIC50: −log10 of the molar value.

Columns and labels:
[1] = target: T1, HMG-CoA reductase (Homo sapiens, UniProt P04035); experiment: HMG-CoA reductase assay kit (Sigma-Aldrich), spectrophotometry at […] nm; assay type: biochemical
T1 construct: gene HMGCR
T1 sequence (P04035 1-888): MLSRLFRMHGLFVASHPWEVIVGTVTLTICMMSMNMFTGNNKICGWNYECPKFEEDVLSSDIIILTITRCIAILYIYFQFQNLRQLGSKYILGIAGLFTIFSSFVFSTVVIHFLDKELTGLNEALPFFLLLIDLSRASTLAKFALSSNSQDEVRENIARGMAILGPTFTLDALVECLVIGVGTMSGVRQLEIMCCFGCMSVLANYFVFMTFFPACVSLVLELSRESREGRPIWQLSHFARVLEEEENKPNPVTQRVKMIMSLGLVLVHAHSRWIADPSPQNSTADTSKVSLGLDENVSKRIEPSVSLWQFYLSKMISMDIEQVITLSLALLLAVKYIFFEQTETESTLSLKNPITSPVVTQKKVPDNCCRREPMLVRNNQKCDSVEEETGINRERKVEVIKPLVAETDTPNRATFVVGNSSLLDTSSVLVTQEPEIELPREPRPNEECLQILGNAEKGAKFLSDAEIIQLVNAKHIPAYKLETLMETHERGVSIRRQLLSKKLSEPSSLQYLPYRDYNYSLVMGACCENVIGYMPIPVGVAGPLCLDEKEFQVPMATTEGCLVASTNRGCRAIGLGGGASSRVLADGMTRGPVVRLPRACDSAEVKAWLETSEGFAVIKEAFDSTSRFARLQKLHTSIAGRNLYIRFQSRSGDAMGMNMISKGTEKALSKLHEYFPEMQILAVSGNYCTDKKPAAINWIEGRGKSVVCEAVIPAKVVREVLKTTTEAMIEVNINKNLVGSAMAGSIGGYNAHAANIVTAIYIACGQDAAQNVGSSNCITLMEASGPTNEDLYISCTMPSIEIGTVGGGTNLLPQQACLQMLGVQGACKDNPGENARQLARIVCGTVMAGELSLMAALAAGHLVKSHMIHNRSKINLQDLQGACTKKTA

[2] = target: T2, CYP3A4 (Homo sapiens, UniProt P08684); experiment: hydroxylation by recombinant CYP3A4 membranes, HPLC and LC-MS (turnover rate); assay type: biochemical
T2 construct: recombinant, E. coli membrane fractions; with rat NADPH-P450 reductase (CPR)
T2 sequence (P08684 2-503): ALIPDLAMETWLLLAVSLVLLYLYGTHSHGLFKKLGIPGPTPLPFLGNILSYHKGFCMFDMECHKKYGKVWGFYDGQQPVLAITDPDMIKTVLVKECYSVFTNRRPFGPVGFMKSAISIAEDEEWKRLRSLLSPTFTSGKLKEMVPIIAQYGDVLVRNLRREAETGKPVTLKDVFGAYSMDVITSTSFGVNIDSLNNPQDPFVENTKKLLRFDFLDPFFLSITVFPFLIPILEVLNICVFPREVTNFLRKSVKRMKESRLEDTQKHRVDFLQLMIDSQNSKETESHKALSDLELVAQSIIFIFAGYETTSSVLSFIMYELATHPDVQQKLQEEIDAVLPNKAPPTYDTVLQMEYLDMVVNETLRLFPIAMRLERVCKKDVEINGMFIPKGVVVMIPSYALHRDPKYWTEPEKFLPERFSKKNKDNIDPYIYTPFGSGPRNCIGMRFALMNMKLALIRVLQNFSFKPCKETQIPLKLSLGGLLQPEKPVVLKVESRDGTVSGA
T2 sequence (P00388 2-678, further chain): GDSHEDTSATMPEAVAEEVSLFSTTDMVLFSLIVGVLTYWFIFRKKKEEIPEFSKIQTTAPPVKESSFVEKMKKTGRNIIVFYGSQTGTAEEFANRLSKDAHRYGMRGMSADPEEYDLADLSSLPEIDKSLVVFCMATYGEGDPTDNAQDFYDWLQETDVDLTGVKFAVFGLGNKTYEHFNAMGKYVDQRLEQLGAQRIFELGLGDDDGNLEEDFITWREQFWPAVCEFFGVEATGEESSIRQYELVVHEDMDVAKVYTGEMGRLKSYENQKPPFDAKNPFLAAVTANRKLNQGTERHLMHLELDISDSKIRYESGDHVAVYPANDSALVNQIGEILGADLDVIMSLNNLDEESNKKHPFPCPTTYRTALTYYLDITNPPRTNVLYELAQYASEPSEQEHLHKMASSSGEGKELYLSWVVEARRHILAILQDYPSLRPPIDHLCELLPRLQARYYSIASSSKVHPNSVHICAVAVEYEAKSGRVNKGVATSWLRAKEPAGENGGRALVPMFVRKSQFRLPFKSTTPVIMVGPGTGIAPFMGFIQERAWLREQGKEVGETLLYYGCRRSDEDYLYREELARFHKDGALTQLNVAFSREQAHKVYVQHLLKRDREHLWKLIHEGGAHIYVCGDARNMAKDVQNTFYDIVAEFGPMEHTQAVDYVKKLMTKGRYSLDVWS

Work on `C[C@H]1C=CC2=C[C@H](CO)C[C@H](O)[C@@H]2[C@H]1CC[C@@H]1C[C@@H](O)CC(=O)O1` [6′a-hydroxymethyl monacolin J] yielded a pIC50 [1] of 3.55.
For `C[C@H]1C=C2C=C[C@H](C)[C@H](CC[C@@H]3C[C@@H](O)CC(=O)O3)[C@H]2[C@@H](O)C1` [monacolin J], the “hydroxylation by recombinant CYP3A4 membranes, HPLC and LC-MS (turnover rate)” value [2] was 0.040 nmol product min^−1 nmol P450^−1.
